# Reference: paper PMC8951032, “Study of Biological Activities and ADMET-Related Properties of Novel Chlorinated N-arylcinnamamides” (International Journal of Molecular Sciences, 2022)
# Read-outs that look alike come from different tables or passages of the source.
# What was measured:
# [1] = Lipophilicity determination by RP-HPLC (log k, log D); type: physicochemical; settings: for log k: MeOH 72%/H2O 28%; for log D6.5: MeOH 72%/acetate buffered saline pH 6.5; for log D7.4: MeOH 72%/acetate buffered saline pH 7.4
# Protocol: In addition to the mentioned ADME profile, it is responsible for interactions with biological targets. Lipophilicity is recognized as one of the most important parameters influencing ADME and bioactivity and is also part, e.g., of Lipinski’s Rule of Five (Ro5). This thermodynamic parameter describing the molecule’s affinity for an aqueous or relatively lipophilic environment can be characterized by the logarithm of the partition coefficient (log P). In this study, lipophilicity was measured by reversed-phase high-performance liquid chromatography (RP-HPLC) under isocratic conditions with methanol as the organic modifier in the aqueous mobile phase and the logarithm of the capacity factor k was calculated, which is used as the lipophilicity index converted to the log P scale. In addition to the log k values, the logarithm of the distribution coefficient DpH at pH 6.5 and 7.4 was determined to clarify the behavior of the compounds under physiological conditions and possible ionization. Instead of water, a buffer of suitable pH was used as part of the mobile phase. In addition to the above-mentioned experimental methods, commercially available ChemBioDraw Ultra 13.0 and ACD/Percepta ver. 2012 programs were used to calculate the lipophilicity values of all prepared compounds.
# A HPLC separation module Waters Alliance 2695 XE equipped with a Waters Dual Absorbance Detector 2486 (Waters Corp., Milford, MA, USA) was used. A chromatographic column Symmetry® C18 5 μm, 4.6 × 250 mm, Part No. W21751W016 (Waters Corp., Milford, MA, USA) was used. The HPLC separation process was monitored by Empower® 3 Chromatography Manager Software (Waters Corp.). Isocratic elution by a mixture of MeOH p.a. (72%) and H2O-HPLC Mili-Q grade (28%) as a mobile phase was used for the determination of capacity factor k. Isocratic elution by a mixture of MeOH p.a. (72%) and acetate buffered saline (pH 7.4 and pH 6.5) (28%) as a mobile phase was used for the determination of distribution coefficient expressed as D7.4 and D6.5. The total flow of the column was 1.0 mL/min, injection 20 μL, column temperature 40 °C, and sample temperature 10 °C. The detection wavelength of 210 nm was chosen. A KI methanolic solution was used for the determination of the dead times (tD). Retention times (tR) were measured in minutes. The capacity factors k were calculated according to the formula k = (tR − tD)/tD, where tR is the retention time of the solute, and tD is the dead time obtained using an unretained analyte. The distribution coefficients DpH were calculated according to the formula DpH = (tR − tD)/tD. Each experiment was repeated three times.
# [2] = tested on: Mycobacterium smegmatis ATCC 700084; assay: In vitro antimycobacterial activity, broth dilution MIC; type: cell-based; settings: Mycolicibacterium smegmatis
# [3] = tested on: Mycobacterium marinum CAMP 5644; assay: as above; type: cell-based; settings: CAMP5644, 504 h
smiles,measurement,setting,value
"O=C(/C=C/c1ccc(Cl)cc1)Nc1ccccc1 [1a, (2E)-3-(4-Chlorophenyl)-N-phenylprop-2-enamide]",log k,[1],0.4490
same,log D6.5,[1],0.4428
same,log D7.4,[1],0.4515
"O=C(/C=C/c1ccc(Cl)cc1)Nc1ccccc1F [1b, (2E)-3-(4-Chlorophenyl)-N-(2-fluorophenyl)prop-2-enamide]",log k,[1],0.6459
same,log D6.5,[1],0.5908
same,log D7.4,[1],0.5965
"O=C(/C=C/c1ccc(Cl)cc1)Nc1cccc(F)c1 [1c, (2E)-3-(4-Chlorophenyl)-N-(3-fluorophenyl)prop-2-enamide]",log k,[1],0.7859
same,log D6.5,[1],0.7296
same,log D7.4,[1],0.7325
"O=C(/C=C/c1ccc(Cl)cc1)Nc1ccc(F)cc1 [1d, (2E)-3-(4-Chlorophenyl)-N-(4-fluorophenyl)prop-2-enamide]",log k,[1],0.7808
same,log D6.5,[1],0.7252
same,log D7.4,[1],0.7290
"O=C(/C=C/c1ccc(Cl)cc1)Nc1ccccc1Cl [1e, (2E)-N-(2-Chlorophenyl)-3-(4-chlorophenyl)prop-2-enamide]",log k,[1],0.5241
same,log D6.5,[1],0.4650
same,log D7.4,[1],0.4724
"O=C(/C=C/c1ccc(Cl)cc1)Nc1cccc(Cl)c1 [1f, (2E)-N-(3-Chlorophenyl)-3-(4-chlorophenyl)prop-2-enamide]",log k,[1],0.6192
same,log D6.5,[1],0.5603
same,log D7.4,[1],0.5666
"O=C(/C=C/c1ccc(Cl)cc1)Nc1ccc(Cl)cc1 [1g, (2E)-N,3-bis(4-Chlorophenyl)prop-2-enamide]",log k,[1],0.5598
same,log D6.5,[1],0.5012
same,log D7.4,[1],0.5065
"O=C(/C=C/c1ccc(Cl)cc1)Nc1ccccc1C(F)(F)F [1h, (2E)-3-(4-Chlorophenyl)-N-[2-(trifluoromethyl)phenyl]prop-2-enamide]",log k,[1],0.5506
same,log D6.5,[1],0.4938
same,log D7.4,[1],0.5010
"O=C(/C=C/c1ccc(Cl)cc1)Nc1ccc(C(F)(F)F)cc1 [1j, (2E)-3-(4-Chlorophenyl)-N-[4-(trifluoromethyl)phenyl]prop-2-enamide]",log k,[1],0.9078
same,log D6.5,[1],0.8541
same,log D7.4,[1],0.8560
"O=C(/C=C/c1ccc(Cl)cc1)Nc1ccc(OC(F)(F)F)cc1 [1k, (2E)-3-(4-Chlorophenyl)-N-[4-(trifluoromethoxy)phenyl]prop-2-enamide]",log k,[1],0.8759
same,log D6.5,[1],0.8702
same,log D7.4,[1],0.8754
"O=C(/C=C/c1ccc(Cl)cc1)Nc1ccc(F)cc1F [1l, (2E)-3-(4-Chlorophenyl)-N-(2,4-difluorophenyl)prop-2-enamide]",log k,[1],0.5746
same,log D6.5,[1],0.5172
same,log D7.4,[1],0.5223
"O=C(/C=C/c1ccc(Cl)cc1)Nc1cc(F)cc(F)c1 [1m, (2E)-3-(4-Chlorophenyl)-N-(3,5-difluorophenyl)prop-2-enamide]",log k,[1],0.8054
same,log D6.5,[1],0.7502
same,log D7.4,[1],0.7537
"O=C(/C=C/c1ccc(Cl)cc1)Nc1ccc(Cl)cc1Cl [1n, (2E)-3-(4-Chlorophenyl)-N-(2,4-dichlorophenyl)prop-2-enamide]",log k,[1],0.9665
same,log D6.5,[1],0.9141
same,log D7.4,[1],0.9170
"O=C(/C=C/c1ccc(Cl)cc1)Nc1cc(Cl)ccc1Cl [1o, (2E)-3-(4-Chlorophenyl)-N-(2,5-dichlorophenyl)prop-2-enamide]",log k,[1],0.9507
same,log D6.5,[1],0.8986
same,log D7.4,[1],0.9010
"O=C(/C=C/c1ccc(Cl)c(Cl)c1)Nc1ccccc1F [2b, (2E)-N-(2-Fluorophenyl)-3-(3,4-dichlorophenyl)prop-2-enamide]",log k,[1],0.7764
same,log D6.5,[1],0.8203
same,log D7.4,[1],0.8019
"O=C(/C=C/c1ccc(Cl)c(Cl)c1)Nc1cccc(F)c1 [2c, (2E)-N-(3-Fluorophenyl)-3-(3,4-dichlorophenyl)prop-2-enamide]",log k,[1],0.9071
same,log D6.5,[1],0.9453
same,log D7.4,[1],0.8735
"O=C(/C=C/c1ccc(Cl)c(Cl)c1)Nc1ccc(F)cc1 [2d, (2E)-N-(4-Fluorophenyl)-3-(3,4-dichlorophenyl)prop-2-enamide]",log k,[1],0.9009
same,log D6.5,[1],0.9381
same,log D7.4,[1],0.8660
"O=C(/C=C/c1ccc(Cl)c(Cl)c1)Nc1ccccc1Cl [2e, (2E)-N-(2-Chlorophenyl)-3-(3,4-dichlorophenyl)prop-2-enamide]",log k,[1],0.6488
same,log D6.5,[1],0.6925
same,log D7.4,[1],0.6739
"O=C(/C=C/c1ccc(Cl)c(Cl)c1)Nc1cccc(Cl)c1 [2f, (2E)-N-(3-Chlorophenyl)-3-(3,4-dichlorophenyl)prop-2-enamide]",log k,[1],0.7404
same,log D6.5,[1],0.7816
same,log D7.4,[1],0.7616
"O=C(/C=C/c1ccc(Cl)c(Cl)c1)Nc1ccc(Cl)cc1 [2g, (2E)-N-(4-Chlorophenyl)-3-(3,4-dichlorophenyl)prop-2-enamide]",log k,[1],0.6786
same,log D6.5,[1],0.7224
same,log D7.4,[1],0.7021
"O=C(/C=C/c1ccc(Cl)c(Cl)c1)Nc1ccccc1C(F)(F)F [2h, (2E)-3-(3,4-Dichlorophenyl)-N-[2-(trifluoromethyl)phenyl]prop-2-enamide]",log k,[1],0.6836
same,log D6.5,[1],0.7295
same,log D7.4,[1],0.6526
"O=C(/C=C/c1ccc(Cl)c(Cl)c1)Nc1ccc(F)cc1F [2l, (2E)-3-(3,4-Dichlorophenyl)-N-(2,4-difluorophenyl)prop-2-enamide]",log k,[1],0.6989
same,log D6.5,[1],0.7094
same,log D7.4,[1],0.6632
"O=C(/C=C/c1ccc(Cl)c(Cl)c1)Nc1cc(F)cc(F)c1 [2m, (2E)-3-(3,4-Dichlorophenyl)-N-(3,5-difluorophenyl)prop-2-enamide]",log k,[1],0.9298
same,log D6.5,[1],0.9345
same,log D7.4,[1],0.8882
"O=C(/C=C/c1ccc(Cl)c(Cl)c1)Nc1ccc(Cl)cc1Cl [2n, (2E)-N-(2,4-Dichlorophenyl)-3-(3,4-dichlorophenyl)prop-2-enamide]",log k,[1],1.0932
same,log D6.5,[1],1.0985
same,log D7.4,[1],1.0565
"O=C(/C=C/c1ccc(Cl)c(Cl)c1)Nc1cc(Cl)ccc1Cl [2o, (2E)-N-(2,5-Dichlorophenyl)-3-(3,4-dichlorophenyl)prop-2-enamide]",log k,[1],1.0840
same,log D6.5,[1],1.0887
same,log D7.4,[1],1.0474
"O=C(/C=C/c1ccc(Cl)c(Cl)c1)Nc1cc(Cl)cc(Cl)c1 [2p, (2E)-N-(3,5-Dichlorophenyl)-3-(3,4-dichlorophenyl)prop-2-enamide]",log k,[1],1.3043
same,log D6.5,[1],1.3336
same,log D7.4,[1],1.3080
"NNC(=O)c1ccncc1 [INH, isoniazid, reference compound]",MIC,"[2]; ATCC700084, 72 h, M. smegmatis ATCC 700084, three days, read-out: MIC MS",0.000117 M
same,MIC,"[2]; ATCC700084, M. smegmatis ATCC 700084, read-out: log(1/MIC [M]) MS (converted)",0.000117 M
same,MIC,"[3]; M. marinum CAMP 5644, 21 days, read-out: MIC MM",0.000467 M
same,MIC,"[3]; M. marinum CAMP 5644, read-out: log(1/MIC [M]) MM (converted)",0.000468 M
